Assay results taken from patent US6747164B2, “Use of amine compounds with improved biodegradability as adjuvants for pesticides and fertilizers” (priority 2000, dated 2004).
“And” between values parts separate entries of the source, which are not always exact repeats. Equal values may be shown once.

What was measured:
Type in all cases: in vivo
[1] = test system: Lolium rigidum; assay: Greenhouse test of glyphosate/adjuvant formulations with Lolium rigidum
[2] = test system: Elymus repens; assay: Greenhouse test of glyphosate/adjuvant formulations with Elymus repens
[3] = test system: Brassica napus; assay: Greenhouse test of glyphosate/adjuvant formulations with Brassica napus
[4] = Example 2, Table 4, glyphosate 0.75 kg a.e./ha, glyphosate/adjuvant 2:1, 4 weeks after spraying

## Monoester between polyethyleneglycol (2.5 EO)-monococo ether monocarboxymethyl ether and triethanolamine
[1]; in vivo
  Effect: 48% and 68% and 88%

## Cocoamide of N,N-bishydroxyethyl-1,3-propylenediamine
[2]; Example 2, Table 3, glyphosate 0.15 kg a.e./ha, glyphosate/adjuvant 2:1, 5 weeks after spraying, 100% = totally dead plant
  Effect: 13%
[2]; Example 2, Table 3, glyphosate 0.15 kg a.e./ha, glyphosate/adjuvant 5:1, 5 weeks after spraying
  Effect: 8%
[2]; Example 2, Table 3, glyphosate 0.25 kg a.e./ha, glyphosate/adjuvant 2:1, 5 weeks after spraying
  Effect: 75%
[2]; Example 2, Table 3, glyphosate 0.25 kg a.e./ha, glyphosate/adjuvant 5:1, 5 weeks after spraying
  Effect: 65%
[2]; Example 2, Table 3, glyphosate 0.75 kg a.e./ha, glyphosate/adjuvant 2:1, 5 weeks after spraying
  Effect: 97%
[2]; Example 2, Table 3, glyphosate 0.75 kg a.e./ha, glyphosate/adjuvant 5:1, 5 weeks after spraying
  Effect: 95%
[2]; Example 3, Table 6, glyphosate 0.15 kg a.e./ha, glyphosate/adjuvant 2:1, 7 weeks after spraying
  Effect: 33%
[2]; Example 3, Table 6, glyphosate 0.25 kg a.e./ha, glyphosate/adjuvant 2:1, 7 weeks after spraying
  Effect: 47%
[2]; Example 3, Table 6, glyphosate 0.75 kg a.e./ha, glyphosate/adjuvant 2:1, 7 weeks after spraying
  Effect: 100%
[3]; Example 2, Table 4, glyphosate 0.15 kg a.e./ha, glyphosate/adjuvant 2:1, 4 weeks after spraying
  Effect: 40%
[3]; Example 2, Table 4, glyphosate 0.15 kg a.e./ha, glyphosate/adjuvant 5:1, 4 weeks after spraying
  Effect: 8%
[3]; Example 2, Table 4, glyphosate 0.25 kg a.e./ha, glyphosate/adjuvant 2:1, 4 weeks after spraying
  Effect: 70%
[3]; Example 2, Table 4, glyphosate 0.25 kg a.e./ha, glyphosate/adjuvant 5:1, 4 weeks after spraying
  Effect: 73%
[3]; [4]
  Effect: 98%
[3]; Example 2, Table 4, glyphosate 0.75 kg a.e./ha, glyphosate/adjuvant 5:1, 4 weeks after spraying
  Effect: 87%
[3]; Example 3, Table 7, glyphosate 0.15 kg a.e./ha, glyphosate/adjuvant 2:1, 4 weeks after spraying
  Effect: 45%
[3]; Example 3, Table 7, glyphosate 0.25 kg a.e./ha, glyphosate/adjuvant 2:1, 4 weeks after spraying
  Effect: 52%
[3]; Example 3, Table 7, glyphosate 0.75 kg a.e./ha, glyphosate/adjuvant 2:1, 4 weeks after spraying
  Effect: 90%
[1]; Example 2, Table 5, glyphosate 0.08 kg a.e./ha, glyphosate/adjuvant 2:1, 4 weeks after spraying
  Effect: 57%
[1]; Example 2, Table 5, glyphosate 0.08 kg a.e./ha, glyphosate/adjuvant 5:1, 4 weeks after spraying
  Effect: 23%
[1]; Example 2, Table 5, glyphosate 0.15 kg a.e./ha, glyphosate/adjuvant 2:1, 4 weeks after spraying
  Effect: 78%
[1]; Example 2, Table 5, glyphosate 0.15 kg a.e./ha, glyphosate/adjuvant 5:1, 4 weeks after spraying
  Effect: 72%
[1]; Example 2, Table 5, glyphosate 0.25 kg a.e./ha, glyphosate/adjuvant 2:1, 4 weeks after spraying
  Effect: 97%
[1]; Example 2, Table 5, glyphosate 0.25 kg a.e./ha, glyphosate/adjuvant 5:1, 4 weeks after spraying
  Effect: 88%
[1]; Example 3, Table 8, glyphosate 0.08 kg a.e./ha, glyphosate/adjuvant 2:1, 4 weeks after spraying
  Effect: 40%
[1]; Example 3, Table 8, glyphosate 0.15 kg a.e./ha, glyphosate/adjuvant 2:1, 4 weeks after spraying
  Effect: 58%
[1]; Example 3, Table 8, glyphosate 0.25 kg a.e./ha, glyphosate/adjuvant 2:1, 4 weeks after spraying
  Effect: 93%

## CCCCCCOC1OC(CO)C(O)C(O)C1O (centres unmarked) [Hexyl glucoside, reference compound]
[3]; [4]
  Effect: 57%

## CCCCC(CC)COC1OC(CO)C(O)C(O)C1O (centres unmarked) [2-ethylhexyl glucoside, reference compound]
[3]; [4]
  Effect: 63%

## Monoester between polyethyleneglycol (4.5 EO)-monococo ether monocarboxymethyl ether and triethanolamine
[3]; in vivo
  Effect: 58% and 75% and 92%
[1]; in vivo
  Effect: 52% and 72% and 96%
